Laboratory results reported in BigSolDB 2.1.

Cc1cc(C)nc(Nc2ccccc2)n1
solubility (mole fraction) (in cyclohexane, 283.15 K): 0.00583
solubility (mole fraction) (in cyclohexane, 288.15 K): 0.00751
solubility (mole fraction) (in cyclohexane, 293.15 K): 0.0095
solubility (mole fraction) (in cyclohexane, 298.15 K): 0.0123
solubility (mole fraction) (in cyclohexane, 303.15 K): 0.0157
solubility (mole fraction) (in cyclohexane, 308.15 K): 0.0213
solubility (mole fraction) (in cyclohexane, 313.15 K): 0.0304
solubility (mole fraction) (in cyclohexane, 318.15 K): 0.0435
solubility (mole fraction) (in cyclohexane, 323.15 K): 0.0614
solubility (mole fraction) (in ethanol, 283.15 K): 0.0146
solubility (mole fraction) (in ethanol, 288.15 K): 0.0175
solubility (mole fraction) (in ethanol, 293.15 K): 0.0211
solubility (mole fraction) (in ethanol, 298.15 K): 0.0267
solubility (mole fraction) (in ethanol, 303.15 K): 0.0332
solubility (mole fraction) (in ethanol, 308.15 K): 0.0438
solubility (mole fraction) (in ethanol, 313.15 K): 0.0577
solubility (mole fraction) (in ethanol, 318.15 K): 0.0785
solubility (mole fraction) (in ethanol, 323.15 K): 0.112
solubility (mole fraction) (in isobutanol, 283.15 K): 0.0148
solubility (mole fraction) (in isobutanol, 288.15 K): 0.0178
solubility (mole fraction) (in isobutanol, 293.15 K): 0.0236
solubility (mole fraction) (in isobutanol, 298.15 K): 0.028
solubility (mole fraction) (in isobutanol, 303.15 K): 0.0345
solubility (mole fraction) (in isobutanol, 308.15 K): 0.0454
solubility (mole fraction) (in isobutanol, 313.15 K): 0.0652
solubility (mole fraction) (in isobutanol, 318.15 K): 0.0937
solubility (mole fraction) (in isobutanol, 323.15 K): 0.13
solubility (mole fraction) (in isopropanol, 283.15 K): 0.0103
solubility (mole fraction) (in isopropanol, 288.15 K): 0.0126
solubility (mole fraction) (in isopropanol, 293.15 K): 0.016
solubility (mole fraction) (in isopropanol, 298.15 K): 0.0198
solubility (mole fraction) (in isopropanol, 303.15 K): 0.025
solubility (mole fraction) (in isopropanol, 308.15 K): 0.0324
solubility (mole fraction) (in isopropanol, 313.15 K): 0.0429
solubility (mole fraction) (in isopropanol, 318.15 K): 0.0611
solubility (mole fraction) (in isopropanol, 323.15 K): 0.0861
solubility (mole fraction) (in methanol, 283.15 K): 0.0138
solubility (mole fraction) (in methanol, 288.15 K): 0.0162
solubility (mole fraction) (in methanol, 293.15 K): 0.0193
solubility (mole fraction) (in methanol, 298.15 K): 0.0245
solubility (mole fraction) (in methanol, 303.15 K): 0.0311
solubility (mole fraction) (in methanol, 308.15 K): 0.0418
solubility (mole fraction) (in methanol, 313.15 K): 0.0568
solubility (mole fraction) (in methanol, 318.15 K): 0.0765
solubility (mole fraction) (in methanol, 323.15 K): 0.107
solubility (mole fraction) (in n-butanol, 283.15 K): 0.0193
solubility (mole fraction) (in n-butanol, 288.15 K): 0.0251
solubility (mole fraction) (in n-butanol, 293.15 K): 0.0317
solubility (mole fraction) (in n-butanol, 298.15 K): 0.0389
solubility (mole fraction) (in n-butanol, 303.15 K): 0.0498
solubility (mole fraction) (in n-butanol, 308.15 K): 0.0638
solubility (mole fraction) (in n-butanol, 313.15 K): 0.0813
solubility (mole fraction) (in n-butanol, 318.15 K): 0.112
solubility (mole fraction) (in n-butanol, 323.15 K): 0.145
solubility (mole fraction) (in n-propanol, 283.15 K): 0.0179
solubility (mole fraction) (in n-propanol, 288.15 K): 0.0215
solubility (mole fraction) (in n-propanol, 293.15 K): 0.0264
solubility (mole fraction) (in n-propanol, 298.15 K): 0.0316
solubility (mole fraction) (in n-propanol, 303.15 K): 0.037
solubility (mole fraction) (in n-propanol, 308.15 K): 0.0481
solubility (mole fraction) (in n-propanol, 313.15 K): 0.0682
solubility (mole fraction) (in n-propanol, 318.15 K): 0.0971
solubility (mole fraction) (in n-propanol, 323.15 K): 0.131
